Series [1] has as its target ATP-dependent translocase ABCB1 (Homo sapiens, UniProt P08183). As to the kind of experiment: TP_TRANSPORTER: intracellular accumulation in KB cell and KB-VJ300 cells. Format: functional, cell-based.
For series [2], the target named is ATP-dependent translocase ABCB1 (Mus musculus, UniProt P21447). In words: TP_TRANSPORTER: increase in brain concentration in mdr1a(-/-) mouse. The class given is functional, organism-based. As to conditions: in vivo.
Chain of ATP-dependent translocase ABCB1 (Mus musculus, UniProt P21447) (P21447 whole entry): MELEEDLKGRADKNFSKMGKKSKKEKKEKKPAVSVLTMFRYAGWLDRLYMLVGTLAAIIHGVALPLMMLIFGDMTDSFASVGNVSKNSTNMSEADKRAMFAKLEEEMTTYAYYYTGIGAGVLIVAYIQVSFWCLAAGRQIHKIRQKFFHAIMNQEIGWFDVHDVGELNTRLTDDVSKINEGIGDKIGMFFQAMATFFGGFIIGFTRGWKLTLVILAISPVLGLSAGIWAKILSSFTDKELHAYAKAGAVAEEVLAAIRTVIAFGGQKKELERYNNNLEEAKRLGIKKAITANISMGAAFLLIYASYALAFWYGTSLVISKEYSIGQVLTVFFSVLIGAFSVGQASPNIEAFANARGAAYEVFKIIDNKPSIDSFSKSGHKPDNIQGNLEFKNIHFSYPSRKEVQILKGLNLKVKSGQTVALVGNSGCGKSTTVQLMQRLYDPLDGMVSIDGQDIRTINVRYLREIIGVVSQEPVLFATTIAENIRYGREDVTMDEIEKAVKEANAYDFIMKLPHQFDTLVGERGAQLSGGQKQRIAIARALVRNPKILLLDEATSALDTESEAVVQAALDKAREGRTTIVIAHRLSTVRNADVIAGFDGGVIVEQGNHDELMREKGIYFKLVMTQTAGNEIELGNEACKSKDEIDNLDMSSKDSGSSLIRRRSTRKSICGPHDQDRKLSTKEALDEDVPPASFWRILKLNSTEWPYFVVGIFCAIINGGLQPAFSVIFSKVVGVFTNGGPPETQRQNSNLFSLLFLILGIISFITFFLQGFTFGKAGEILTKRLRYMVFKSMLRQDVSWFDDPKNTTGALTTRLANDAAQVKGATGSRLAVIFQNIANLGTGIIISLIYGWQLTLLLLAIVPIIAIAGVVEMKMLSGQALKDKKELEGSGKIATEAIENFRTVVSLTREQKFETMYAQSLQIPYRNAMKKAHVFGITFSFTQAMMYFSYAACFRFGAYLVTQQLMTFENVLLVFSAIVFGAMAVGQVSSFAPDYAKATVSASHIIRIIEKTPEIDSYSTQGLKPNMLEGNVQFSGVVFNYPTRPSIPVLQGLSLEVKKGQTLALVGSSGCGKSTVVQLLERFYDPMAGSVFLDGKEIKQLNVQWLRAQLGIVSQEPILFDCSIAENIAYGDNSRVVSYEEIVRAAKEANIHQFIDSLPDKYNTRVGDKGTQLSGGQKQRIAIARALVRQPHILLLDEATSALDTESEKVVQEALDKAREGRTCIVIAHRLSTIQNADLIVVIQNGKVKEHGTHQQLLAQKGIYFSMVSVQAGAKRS

Chain of ATP-dependent translocase ABCB1 (Homo sapiens, UniProt P08183) (P08183 whole entry): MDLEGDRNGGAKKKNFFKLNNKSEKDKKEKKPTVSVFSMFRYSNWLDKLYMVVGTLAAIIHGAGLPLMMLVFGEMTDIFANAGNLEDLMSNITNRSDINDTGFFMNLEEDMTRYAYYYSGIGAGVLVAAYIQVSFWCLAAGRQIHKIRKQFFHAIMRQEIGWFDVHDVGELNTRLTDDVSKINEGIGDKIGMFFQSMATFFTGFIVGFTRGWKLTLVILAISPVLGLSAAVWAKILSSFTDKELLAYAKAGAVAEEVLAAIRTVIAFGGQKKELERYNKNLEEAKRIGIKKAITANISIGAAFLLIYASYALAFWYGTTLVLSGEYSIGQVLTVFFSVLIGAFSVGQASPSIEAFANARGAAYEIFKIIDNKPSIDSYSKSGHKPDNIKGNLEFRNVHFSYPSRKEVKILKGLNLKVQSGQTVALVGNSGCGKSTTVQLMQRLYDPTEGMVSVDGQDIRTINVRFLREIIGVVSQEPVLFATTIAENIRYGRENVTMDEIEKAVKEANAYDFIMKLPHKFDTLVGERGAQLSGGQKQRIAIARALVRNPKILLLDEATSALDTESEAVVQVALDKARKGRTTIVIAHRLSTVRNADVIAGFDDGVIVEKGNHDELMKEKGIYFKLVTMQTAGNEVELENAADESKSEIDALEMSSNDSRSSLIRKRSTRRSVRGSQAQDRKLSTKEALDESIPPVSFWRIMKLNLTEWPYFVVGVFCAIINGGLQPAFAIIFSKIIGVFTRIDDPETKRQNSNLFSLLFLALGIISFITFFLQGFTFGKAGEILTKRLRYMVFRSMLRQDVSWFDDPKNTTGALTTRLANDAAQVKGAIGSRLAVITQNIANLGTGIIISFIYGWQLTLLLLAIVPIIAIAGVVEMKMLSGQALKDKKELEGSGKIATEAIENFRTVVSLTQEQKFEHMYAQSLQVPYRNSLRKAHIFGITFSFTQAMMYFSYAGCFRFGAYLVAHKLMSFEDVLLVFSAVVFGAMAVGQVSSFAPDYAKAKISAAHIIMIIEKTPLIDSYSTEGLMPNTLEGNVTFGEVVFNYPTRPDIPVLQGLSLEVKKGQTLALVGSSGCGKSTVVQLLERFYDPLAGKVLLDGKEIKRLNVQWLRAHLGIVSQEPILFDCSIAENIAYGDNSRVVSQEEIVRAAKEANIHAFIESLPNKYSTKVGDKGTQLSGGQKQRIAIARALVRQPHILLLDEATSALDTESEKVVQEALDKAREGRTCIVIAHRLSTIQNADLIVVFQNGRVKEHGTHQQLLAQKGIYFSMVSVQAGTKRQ

For the compound `CC(C)(C)NCC(O)COc1ccccc1C#N` (configuration not stated) [BUNITROLOL], the Activity entry in series [1] and in series [2] was “substrate [+]” in each case.

Source of the values: ChEMBL document CHEMBL2073756, “Contribution of P-glycoprotein to bunitrolol efflux across blood-brain barrier” (Biopharm Drug Dispos, 1999).
